In publication PMC8153077, “Inhibiting quinolone biosynthesis of Burkholderia” (Chemical Science, 2021):

Columns and labels:
HmqD [1] = biological target: T1, HmqD (Burkholderia ambifaria, UniProt Q0B3G0); assay: live-cell activity-based labelling with click chemistry and in-gel fluorescence; proteomic identification of the modified site
T1 construct: gene Bamb_5766; recombinant HmqD overexpressed in live E. coli BL21
Description: live-cell activity-based labelling with click chemistry and in-gel fluorescence; proteomic identification of the modified site on HmqD | identified as site of modification by probe CAA only the active site cysteine C114

HmqD [2] = biological target: T1, HmqD; assay: competitive live-cell activity-based labelling against probe CAA, in-gel fluorescence

T1 sequence (Q0B3G0 entry or part of it): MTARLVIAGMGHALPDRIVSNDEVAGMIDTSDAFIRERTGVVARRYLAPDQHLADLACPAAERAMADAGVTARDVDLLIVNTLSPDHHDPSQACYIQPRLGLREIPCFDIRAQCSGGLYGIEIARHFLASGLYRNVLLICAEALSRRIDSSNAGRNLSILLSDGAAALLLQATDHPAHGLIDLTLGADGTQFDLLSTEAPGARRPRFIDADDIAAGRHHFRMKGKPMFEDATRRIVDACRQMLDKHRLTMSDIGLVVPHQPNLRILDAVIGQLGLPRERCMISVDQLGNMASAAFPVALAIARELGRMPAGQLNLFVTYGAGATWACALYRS

C#CCCC(=O)NCc1ccc(N)c(C(=O)CCl)c1 [CAA]
live-cell activity-based labelling with click chemistry and in-gel fluorescence; (HmqD [1]): 15 nM

Nc1ccc(I)cc1C(=O)CCl [compound 4]
IC50 (HmqD [2]): 100 nM

Nc1cc2c(cc1C(=O)CCl)OCCO2 [compound 7]
IC50 (HmqD [2]): 200 nM

O=C(CCl)c1ccccc1 [compound 9]
IC50 (HmqD [2]): 200 nM
